Measured values reported in PubChem BioAssay AID268 (DTP/NCI, 2004).
Several values for one entry are separate records, joined by “and”; a condition that tells them apart may be missing. Equal entries are not always repeated.

Tested on: CD2F1 mice, P1798 lymphosarcoma sc, tumor weight T/C
Test: NCI In Vivo Anticancer Drug Screen. Data for tumor model P1798 Lymphosarcoma (subcutaneous) in CD2F1 (CDF1) mice
Conditions: endpoint: mean tumor weight, higher = larger tumour
Protocol: The antitumor activity of compounds was measured in mice bearing transplantable tumors. Survival or tumor size were measured and the results are expressed as the measurement made in the treated group (T) divided by the measurement made in the vehicle treated control group (C). The tumor model used in this assay is P1798 Lymphosarcoma (subcutaneous) in CD2F1 (CDF1) mice

[1] = dose: 50.0 mg/kg/injection, schedule: Q01DX010 (ip), vehicle: saline
[2] = dose: 100.0 mg/kg/injection, schedule: Q01DX010 (ip), vehicle: saline
[3] = dose: 200.0 mg/kg/injection, schedule: Q01DX010 (ip), vehicle: saline
[4] = dose: 400.0 mg/kg/injection, schedule: Q01DX010 (ip), vehicle: saline
[5] = dose: 12.5 mg/kg/injection, schedule: Q01DX010 (ip), vehicle: saline
[6] = dose: 25.0 mg/kg/injection, schedule: Q01DX010 (ip), vehicle: saline
[7] = dose: 25.0 mg/kg/injection, schedule: Q01DX010 (sc), vehicle: steriod suspending solution

## CC(/C=N/N=C(N)N)=N\N=C(N)N
dose: 15.0 mg/kg/injection, schedule: Q01DX010 (ip), vehicle: saline
  T/C: 78 % of control
dose: 30.0 mg/kg/injection, schedule: Q01DX010 (ip), vehicle: saline
  T/C: 87 % of control
dose: 60.0 mg/kg/injection, schedule: Q01DX010 (ip), vehicle: saline
  T/C: 50 % of control

## Nc1nc(=O)n(C2CC(O)C(CO)O2)cc1Br (configuration not stated)
[1]
  T/C: 81 % of control
[2]
  T/C: 65 % of control
[3]
  T/C: 39 % of control
[4]
  T/C: 29 % of control
dose: 800.0 mg/kg/injection, schedule: Q01DX010 (ip), vehicle: saline
  T/C: 7 % of control

## Nc1c(Br)cc2c(c1Br)Cc1cc([N+](=O)[O-])ccc1-2
dose: 31.3 mg/kg/injection, schedule: Q01DX010 (ip), vehicle: saline
  T/C: 72 % of control
dose: 62.5 mg/kg/injection, schedule: Q01DX010 (ip), vehicle: saline
  T/C: 78 % of control
dose: 125.0 mg/kg/injection, schedule: Q01DX010 (ip), vehicle: saline
  T/C: 61 % of control
dose: 250.0 mg/kg/injection, schedule: Q01DX010 (ip), vehicle: saline
  T/C: 62 % of control

## O=C(C(=O)N1CC1)c1c[nH]c2ccccc12
dose: 3.13 mg/kg/injection, schedule: Q01DX010 (ip), vehicle: saline
  T/C: 90 % of control
dose: 6.25 mg/kg/injection, schedule: Q01DX010 (ip), vehicle: saline
  T/C: 105 % of control
[5]
  T/C: 92 % of control and 99 % of control
[6]
  T/C: 108 % of control

## CN(C)N=Nc1cccc([N+](=O)[O-])c1
dose: 55.0 mg/kg/injection, schedule: Q01DX011 (ip), vehicle: saline
  T/C: 82 % of control
dose: 80.0 mg/kg/injection, schedule: Q01DX011 (ip), vehicle: saline
  T/C: 188 % of control
dose: 120.0 mg/kg/injection, schedule: Q01DX011 (ip), vehicle: saline
  T/C: 89 % of control
dose: 178.0 mg/kg/injection, schedule: Q01DX010 (ip), vehicle: saline
  T/C: 49 % of control
dose: 178.0 mg/kg/injection, schedule: Q01DX011 (ip), vehicle: saline
  T/C: 113 % of control
dose: 267.0 mg/kg/injection, schedule: Q01DX010 (ip), vehicle: saline
  T/C: 74 % of control

## c1ccc(COCC[P+](c2ccccc2)(c2ccccc2)c2ccccc2)cc1
dose: 3.0 mg/kg/injection, schedule: Q01DX010 (ip), vehicle: saline
  T/C: 76 % of control
dose: 5.0 mg/kg/injection, schedule: Q01DX010 (ip), vehicle: saline
  T/C: 98 % of control
dose: 8.0 mg/kg/injection, schedule: Q01DX010 (ip), vehicle: saline
  T/C: 88 % of control
dose: 12.0 mg/kg/injection, schedule: Q01DX010 (ip), vehicle: saline
  T/C: 33 % of control

## C[C@]12CC[C@@H]3c4ccc(O)cc4CC[C@H]3[C@@H]1C[C@@H](O)[C@@H]2O
dose: 6.25 mg/kg/injection, schedule: Q01DX010 (sc), vehicle: steriod suspending solution
  T/C: 73 % of control and 86 % of control
[7]
  T/C: 69 % of control and 86 % of control

## CC(=O)[C@H]1CC[C@H]2[C@@H]3CCC4=CC(=O)[C@H](C)C[C@]4(C)[C@@]3(F)[C@@H](O)C[C@]12C
[7]
  T/C: 15 % of control
dose: 50.0 mg/kg/injection, schedule: Q01DX010 (sc), vehicle: steriod suspending solution
  T/C: 5 % of control
dose: 100.0 mg/kg/injection, schedule: Q01DX010 (sc), vehicle: steriod suspending solution
  T/C: 4 % of control
dose: 200.0 mg/kg/injection, schedule: Q01DX010 (sc), vehicle: steriod suspending solution
  T/C: 6 % of control
dose: 400.0 mg/kg/injection, schedule: Q01DX010 (sc), vehicle: steriod suspending solution
  T/C: 5 % of control

## COc1cc(-c2ccc(Nc3ccccc3C(=O)O)c(OC)c2)ccc1Nc1ccccc1C(=O)O
[5]
  T/C: 61 % of control
[6]
  T/C: 53 % of control and 57 % of control
[1]
  T/C: 12 % of control and 30 % of control

## Nc1ncnc2c1ccn2C1OC(CO)C(O)C1O (configuration not stated)
dose: 0.32 mg/kg/injection, schedule: Q01DX010 (ip), vehicle: saline
  T/C: 97 % of control
dose: 0.63 mg/kg/injection, schedule: Q01DX010 (ip), vehicle: saline
  T/C: 101 % of control
dose: 1.25 mg/kg/injection, schedule: Q01DX010 (ip), vehicle: saline
  T/C: 84 % of control

## N#CCCCCCNC(=O)CCCCC(=O)NCCCCCC#N
[2]
  T/C: 85 % of control
[3]
  T/C: 111 % of control
[4]
  T/C: 87 % of control
